Measured values as given in patent EP3696177A1, “HETEROCYCLIC COMPOUNDS FOR THE CONTROL OF INVERTEBRATE PESTS” (BASF SE, priority 2019, dated 2020).
Where two headings read alike, the source gives them in different places.

Experiments:
Type in all cases: in vivo
Aedes aegypti = assay: whole plant or invertebrate; details: 48 h, A. aegypti larvae, incubated 2 days, read-out: mortality in comparison with untreated controls (larval mortality)
Description: For evaluating control of yellow fever mosquito (Aedes aegypti) the test unit consisted of 96-well-microtiter plates containing 200µl of tap water per well and 5-15 freshly hatched A. aegypti larvae.
The active compounds were formulated using a solution containing 75% (v/v) water and 25% (v/v) DMSO. Different concentrations of formulated compounds or mixtures were sprayed onto the insect diet at 2.5µl, using a custom built micro atomizer, at two replications.
After application, microtiter plates were incubated at 28 + 1°C, 80 + 5 % RH for 2 days. Larval mortality was then visually assessed.

dichromothrips corbetti = assay: Orchid thrips floral-immersion test; details: 72 h, read-out: mortality in comparison with untreated controls
Description: Dichromothrips corbetti adults used for bioassay are obtained from a colony maintained continu-ously under laboratory conditions. For testing purposes, the test compound is diluted in a 1:1 mix-ture of acetone:water (vol:vol), plus Kinetic at a rate of 0.01% v/v.
Thrips potency of each compound is evaluated by using a floral-immersion technique. Each orchid petal is dipped into treatment solution and allowed to dry in Petri dishes. Treated petals are placed into individual re-sealable plastic along with about 20 adult thrips. All test arenas are held under dark condition and a temperature of about 28°C for duration of the assay. The percent mor-tality is recorded 72 hours after treatment.

Anthonomus grandis = assay: Boll weevil (Anthonomus grandis) insect diet microtiter plate test; details: 120 h, read-out: mortality in comparison with untreated controls (egg and larval mortality)
Description: For evaluating control of boll weevil (Anthonomus grandis) the test unit consisted of 96-well-microtiter plates containing an insect diet and 5-10 A. grandis eggs.
The compounds were formulated using a solution containing 75% v/v water and 25% v/v DMSO. Different concentrations of formulated compounds were sprayed onto the insect diet at 5 µl, using a custom built micro atomizer, at two replications.
After application, microtiter plates were incubated at about 25 + 1°C and about 75 + 5 % relative humidity for 5 days. Egg and larval mortality was then visually assessed.

Aphis craccivora = assay: Cowpea aphid (Aphis craccivora) spray test on potted cowpea plants; details: aphids of various stages, after 72 hours, read-out: mortality in comparison with untreated controls
Description: The active compound is dissolved at the desired concentration in a mixture of 1:1 (vol: vol) distilled water: acetone. Surfactant (Kinetic) is added at a rate of 0.01% (vol/vol). The test solution is prepared at the day of use.
Potted cowpea plants are colonized with approximately 30 - 50 aphids of various stages by man-ually transferring aphid-infested leaf clippings 24 hours before application. Plants are sprayed with the test solutions using a DeVilbiss® hand atomizer at 20- 30 psi (≈ 1.38 to 2.07 bar) after the pest population has been checked. Treated plants are maintained on light carts at about 25- 26°C. Estimate percent mortality is assessed after 72 hours.

Caenorhabditis elegans = Caenorhabditis elegans liquid diet microtiter plate test; details: 96 h, read-out: mortality in comparison with untreated controls (nematode motility (mortality))
Description: For evaluating control of Caenorhabditis elegans through contact or systemic means the test unit consisted of 96-well-microtiter plates containing a liquid diet.
The compounds or mixtures were formulated using a solution containing 75% water and 25% DMSO. Different concentrations of formulated compounds were sprayed into the microtiter plate wells at 5µl per well, using a custom built micro atomizer, at two replications. Mixed instar 60-100 C. elegans were transferred into the micro-titer plate wells. After application, the nematodes were incubated at 18 + 1°C, 70 + 5 % RH for 4 days. Nematode motility (mortality) was then visually assessed.

Heliothis virescens = assay: Tobacco budworm (Heliothis virescens) insect diet microtiter plate test; details: 120 h, read-out: mortality in comparison with untreated controls (egg and larval mortality)
Description: For evaluating control of tobacco budworm (Heliothis virescens) the test unit consisted of 96-well-microtiter plates containing an insect diet and 15-25 H. virescens eggs.
The compounds were formulated using a solution containing 75% v/v water and 25% v/v DMSO. Different concentrations of formulated compounds were sprayed onto the insect diet at 10 µl, us-ing a custom built micro atomizer, at two replications.
After application, microtiter plates were incubated at about 28 + 1°C and about 80 + 5 % relative humidity for 5 days. Egg and larval mortality was then visually assessed.

Megoura viciae = assay: Vetch aphid (Megoura viciae) broad bean leaf disk test; details: foliar, 120 h, read-out: mortality in comparison with untreated controls
Description: For evaluating control of vetch aphid (Megoura viciae) through contact or systemic means the test unit consisted of 24-well-microtiter plates containing broad bean leaf disks.
The compounds were formulated using a solution containing 75% v/v water and 25% v/v DMSO. Different concentrations of formulated compounds were sprayed onto the leaf disks at 2.5 µl, us-ing a custom built micro atomizer, at two replications.
After application, the leaf disks were air-dried and 5 - 8 adult aphids placed on the leaf disks in-side the microtiter plate wells. The aphids were then allowed to suck on the treated leaf disks and incubated at about 23 + 1°C and about 50 + 5 % relative humidity for 5 days. Aphid mortality and fecundity was then visually assessed.

Myzus persicae = assay: Green peach aphid (Myzus persicae) artificial diet/membrane systemic test; details: 72 h, read-out: mortality in comparison with untreated controls
From the text: For evaluating control of green peach aphid (Myzus persicae) through systemic means the test unit consisted of 96-well-microtiter plates containing liquid artificial diet under an artificial membrane.
The compounds were formulated using a solution containing 75% v/v water and 25% v/v DMSO. Different concentrations of formulated compounds were pipetted into the aphid diet, using a cus-tom built pipetter, at two replications.
After application, 5 - 8 adult aphids were placed on the artificial membrane inside the microtiter plate wells. The aphids were then allowed to suck on the treated aphid diet and incubated at about 23 + 1°C and about 50 + 5 % relative humidity for 3 days. Aphid mortality and fecundity was then visually assessed.

Nephotettix virescens = assay: Rice green leafhopper (Nephotettix virescens) spray test on rice seedlings; details: adults, after 72 hours, read-out: mortality in comparison with untreated controls
Description: Four to five-week old rice seedlings with cut upper leaf portion are cleaned and washed 24 hours before spraying. The active compounds are formulated in 1:1 acetone:water (vol:vol), and 0.01% vol/vol surfactant (Kinetic) is added. Potted rice seedlings are sprayed with 5-6 ml test solution, air dried, covered with Mylar cages and inoculated with 10 adults. Treated rice plants are kept at about 28-29°C and relative humidity of about 50-60%. Percent mortality is recorded after 72 hours.

Nezara viridula = assay: Green soldier stink bug (Nezara viridula) soybean pod spray test; details: 120 h, late 3rd instar N. viridula, after 5 days, read-out: mortality in comparison with untreated controls
Description: The active compound is dissolved at the desired concentration in a mixture of 1:1 (vol:vol) distilled water: aceteone. Surfactant (Kinetic) is added at a rate of 0.01% (vol/vol).The test solution is prepared at the day of use.
Soybean pods are placed in 90 x 50 mm glass Petri dishes lined with moistened filter paper and inoculated with ten late 3rd instar N. viridula. Using a hand atomizer, an approximately 2 ml solution is sprayed into each Petri dish. Treated set-up is kept at about 25-26°C and relative humidity of about 65-70%. Percent mortality is recorded after 5 days.

Plutella xylostella = assay: Diamond back moth (Plutella xylostella) cabbage leaf disc dip test; details: foliar, 72 h, read-out: mortality in comparison with untreated controls
Description: The active compound is dissolved at the desired concentration in a mixture of 1:1 (vol:vol) distilled water: acetone. Surfactant (Kinetic) is added at a rate of 0.01% (vol/vol). The test solution is pre-pared at the day of use.
Cabbage leaf discs (60mm in diameter) are dipped in test solution and air-dried. Treated leaves are placed in petri dishes lined with moistened filter paper and inoculated with ten 3rd instar larvae. Mortality is recorded 72 hours after treatment. Feeding damage is also recorded using a scale of 0-100%.

Tetranychus kanzawai = assay: Red spider mite (Tetranychus kanzawai) spray test on cowpea beans; details: 72 h, read-out: mortality in comparison with untreated controls
Description: The active compound is dissolved at the desired concentration in a mixture of 1:1 (vol:vol) distilled water: acetone. Add surfactant (Kinetic) is added at a rate of 0.01% (vol/vol). The test solution is prepared at the day of use.
Potted cowpea beans of 4-5 days of age are cleaned with tap water and sprayed with 1-2 ml of the test solution using air driven DeVilbiss® hand atomizer at 20- 30 psi (≈ 1,38 to 2,07 bar). The treated plants are allowed to air dry and afterwards inoculated with 30 or more mites by clipping a cassava leaf section from rearing population. Treated plants are placed inside a holding room at about 25-26°C and about 65-70% relative humidity. Estimate percent mortality is assessed 72 hours after treatment.

CCN1C(=O)SC(NC(=O)c2ccc(C3=NOC(c4cc(Cl)c(F)c(Cl)c4)(C(F)(F)F)C3)cc2Cl)C1=O (stereo not drawn) [Compound I-1-7]
> 75%: mortality at 2500 ppm (Aedes aegypti) | mortality at 300 ppm (dichromothrips corbetti) | mortality at 2500 ppm (Anthonomus grandis) | mortality at 300 ppm (Aphis craccivora) | mortality at 2500 ppm (Caenorhabditis elegans) | mortality at 2500 ppm (Heliothis virescens) | mortality at 2500 ppm (Megoura viciae) | mortality at 2500 ppm (Myzus persicae) | mortality at 300 ppm (Nephotettix virescens) | mortality at 300 ppm (Nezara viridula) | mortality at 300 ppm (Plutella xylostella) | mortality at 300 ppm (Tetranychus kanzawai; topical)

CN1C(=O)SC(NC(=O)c2ccc(C3=NOC(c4cc(Cl)c(F)c(Cl)c4)(C(F)(F)F)C3)c3c2CCC3)C1=O (stereo not drawn) [Compound I-1-9]
> 75%: mortality at 2500 ppm (Aedes aegypti) | mortality at 300 ppm (dichromothrips corbetti) | mortality at 2500 ppm (Anthonomus grandis) | mortality at 300 ppm (Aphis craccivora) | mortality at 2500 ppm (Caenorhabditis elegans) | mortality at 2500 ppm (Heliothis virescens) | mortality at 2500 ppm (Megoura viciae) | mortality at 2500 ppm (Myzus persicae) | mortality at 300 ppm (Nephotettix virescens) | mortality at 300 ppm (Nezara viridula) | mortality at 300 ppm (Plutella xylostella) | mortality at 300 ppm (Tetranychus kanzawai; topical)

Cc1cc(C2=NOC(c3cc(Cl)c(F)c(Cl)c3)(C(F)(F)F)C2)ccc1C(=O)NC1SC(=O)N(C(C)C)C1=O (stereo not drawn) [Compound I-1-11]
> 75%: mortality at 2500 ppm (Aedes aegypti) | mortality at 300 ppm (dichromothrips corbetti) | mortality at 2500 ppm (Anthonomus grandis) | mortality at 300 ppm (Aphis craccivora) | mortality at 2500 ppm (Caenorhabditis elegans) | mortality at 2500 ppm (Heliothis virescens) | mortality at 2500 ppm (Megoura viciae) | mortality at 2500 ppm (Myzus persicae) | mortality at 300 ppm (Nephotettix virescens) | mortality at 300 ppm (Nezara viridula) | mortality at 300 ppm (Plutella xylostella) | mortality at 300 ppm (Tetranychus kanzawai; topical)

CCN1C(=O)SC(NC(=O)c2ccc(C3=NCC(c4cc(Cl)c(F)c(Cl)c4)(C(F)(F)F)C3)c3c2CCC3)C1=O (stereo not drawn) [Compound I-2-1]
> 75%: mortality at 2500 ppm (Aedes aegypti) | mortality at 300 ppm (dichromothrips corbetti) | mortality at 2500 ppm (Anthonomus grandis) | mortality at 300 ppm (Aphis craccivora) | mortality at 2500 ppm (Caenorhabditis elegans) | mortality at 2500 ppm (Heliothis virescens) | mortality at 2500 ppm (Megoura viciae) | mortality at 2500 ppm (Myzus persicae) | mortality at 300 ppm (Nephotettix virescens) | mortality at 300 ppm (Nezara viridula) | mortality at 300 ppm (Plutella xylostella) | mortality at 300 ppm (Tetranychus kanzawai; topical)

CN1COC(CNC(=O)c2ccc(C3=NOC(c4cc(Cl)c(F)c(Cl)c4)(C(F)(F)F)C3)c3c2CCC3)C1=O (stereo not drawn) [Compound I-3-1]
> 75%: mortality at 2500 ppm (Aedes aegypti) | mortality at 300 ppm (dichromothrips corbetti) | mortality at 2500 ppm (Anthonomus grandis) | mortality at 300 ppm (Aphis craccivora) | mortality at 2500 ppm (Caenorhabditis elegans) | mortality at 2500 ppm (Heliothis virescens) | mortality at 2500 ppm (Megoura viciae) | mortality at 2500 ppm (Myzus persicae) | mortality at 300 ppm (Nephotettix virescens) | mortality at 300 ppm (Nezara viridula) | mortality at 300 ppm (Plutella xylostella) | mortality at 300 ppm (Tetranychus kanzawai; topical)

CN1COC(CNC(=O)c2ccc(C3=NOC(c4cc(Cl)c(F)c(Cl)c4)(C(F)(F)F)C3)cc2Cl)C1=O (stereo not drawn) [Compound I-3-5, 2-chloro-4-[5-(3,5-dichloro-4-fluoro-phenyl)-5-(trifluoromethyl)-4H-isoxazol-3-yl]-N-[(3-methyl-4-oxo-oxazolidin-5-yl)methyl]benzamide]
> 75%: mortality at 2500 ppm (Aedes aegypti) | mortality at 300 ppm (dichromothrips corbetti) | mortality at 2500 ppm (Anthonomus grandis) | mortality at 300 ppm (Aphis craccivora) | mortality at 2500 ppm (Caenorhabditis elegans) | mortality at 2500 ppm (Heliothis virescens) | mortality at 2500 ppm (Megoura viciae) | mortality at 2500 ppm (Myzus persicae) | mortality at 300 ppm (Nephotettix virescens) | mortality at 300 ppm (Nezara viridula) | mortality at 300 ppm (Plutella xylostella) | mortality at 300 ppm (Tetranychus kanzawai)
